From patent US20080319184A1, “Uses of Dinucleotide Polyphosphate Derivatives” (priority 2005, published 2008)
Entries after “also recorded” stand apart in the source; their conditions may differ. Like-named read-outs stand apart in the source and are kept apart here.

Assays:
[1] = test system: orthodromically evoked field potentials in CA1 zone of rat hippocampal slices; assay: Orthodromically induced population spikes (field potentials) in CA1 zone of rat hippocampal slices; type: cell-based; details: for inhibition of orthodromically evoked field potentials by known P2X/P2Y agonists: in the same way as AppCH2ppA, FIG. 8, FIG. 9
Procedure: This study was carried out on 21-day old Wistar rats (WAG/GSto, Moscow, Russia). After rapid decapitation, rat brains were immediately transferred to a Petri dish with chilled (4° C.) solution of the composition 120 mM NaCl, 5 mM KCl, 26 mM NaHCO3, 2 mM MgCl2 and 20 mM glucose. Calcium salts were omitted to reduce possible neuronal damage. The solution was constantly bubbled with 95%O2/5%CO2 gas mixture to maintain pH7.4. Hippocampal slices ([…] thick) were cut manually with a razor blade along the alveolar fibres to preserve the lamellar structure of excitatory connections. During preincubation and experiments, the slices were kept fully submerged in the extracellular solution, pH7.4, comprised of 135 mM NaCl, 5 mM KCl, 26 mM NaHCO3, 1.5 mM CaCl2, 1.5 mM MgCl2, and 20 mM glucose, subjected to continuous bubbling with 95% O2/5% CO2) at 30-31° C. […] (RBI, Natick, Mass., USA) was also included into the extracellular solution during experiments to suppress the inhibitory activity of interneurons. Electrophysiological measurements were recording after at least 2 h of preincubation.
Excitatory postsynaptic currents (EPSCs) were recorded by a standard whole-cell patch clamp technique in the CA1 subfield of the hippocampus in response to stimulation of the Schaffer collateral/commissural pathway. To prevent the spread of electrical activity from area CA3, mini-slices were prepared by making a cut orthogonal to the stratum pyramidale extending to the mossy fibre layer. The intracellular solution, pH 7.2, for patch pipettes was comprised of 100 mM CsF (Merck, Darmstadt, FRG), 40 mM NaH2PO4, 10 mM HEPES-CsOH, 10 mM Tris-HCl. […] Access resistance was monitored throughout the experiments and ranged typically from 6 to 9MΩ. […] Extracellular field potentials were recorded using Ni/Cr electrodes. […] The effects of receptor agonists of antagonists were measured as the mean ratio I/Io where I was the current under the substances action and Io was the current in control saline. […]

[2] = test system: orthodromically evoked field potentials in CA1 zone of rat hippocampal slices; details: cited from earlier work
[3] = test system: excitatory postsynaptic currents in CA1 pyramidal neuron; details: cited from earlier work
[4] = test system: CFA-induced thermal hyperalgesia; assay: CFA-induced thermal hyperalgesia (Plantar test, paw withdrawal latency); type: in vivo, rat
Procedure: CFA-Induced Thermal Hyperalgesia. Unilateral inflammation was induced by injecting 100 μl of 50% solution of CFA (Sigma) in physiological saline into the plantar surface of the right hind paw of the rat. The hyperalgesia to thermal stimulation was determined 48 h after CFA injections using the same apparatus as described below for the noxious acute thermal assay.
Thermal sensitivity: On each day following mechanical testing, rats will be placed in a thermal testing apparatus (Plantar test, Ugo Basile, Italy), in which they will be free to move. After 30 min of acclimatization, a constant-power IR stimulus will be focused through the glass base on to the sole of the foot, and the latency for reflex foot withdrawal will be recorded automatically via a photoelectric monitor as previously described Hargreaves et al. 1988.
In each test session, each rat (from 6 tested rats) was tested in three sequential trials at approximately 15 min intervals.

[5] = test system: excitatory postsynaptic currents in CA1 pyramidal neuron; assay: Excitatory postsynaptic currents (EPSCs), whole-cell patch clamp in CA1 pyramidal neuron of hippocampal slices; type: cell-based, rat
Procedure: (§1) This study was carried out on 21-day old Wistar rats (WAG/GSto, Moscow, Russia). After rapid decapitation, rat brains were immediately transferred to a Petri dish with chilled (4° C.) solution of the composition 120 mM NaCl, 5 mM KCl, 26 mM NaHCO3, 2 mM MgCl2 and 20 mM glucose. Calcium salts were omitted to reduce possible neuronal damage. The solution was constantly bubbled with 95%O2/5%CO2 gas mixture to maintain pH7.4. Hippocampal slices ([…] thick) were cut manually with a razor blade along the alveolar fibres to preserve the lamellar structure of excitatory connections. […]
(§2) Excitatory postsynaptic currents (EPSCs) were recorded by a standard whole-cell patch clamp technique in the CA1 subfield of the hippocampus in response to stimulation of the Schaffer collateral/commissural pathway. […] Access resistance was monitored throughout the experiments and ranged typically from 6 to 9MΩ. […] Extracellular field potentials were recorded using Ni/Cr electrodes. […] The effects of receptor agonists of antagonists were measured as the mean ratio I/Io where I was the current under the substances action and Io was the current in control saline. […]

[6] = test system: NMDA-receptor-mediated channels; assay: NMDA-activated current in isolated hippocampal pyramidal neurons (whole-cell patch clamp); type: cell-based, rat
Procedure: NMDA-receptor-activated currents were evoked by 1-2 sec long co-application of aspartate (ASP) (1 mM) and glycine (10 μM). Vh=−100 mV in Mg^2+ free solution.
Wistar rats (12-17-days old) were decapitated under ether anaesthesia and the hippocampus (or cerebellum) was removed. It was cut into slices (300-500 μm) in a solution containing (in mM): 150 NaCl; 5 KCl; 1.25 NaH2PO4; 26 NaHCO3; 1.1 MgCl2; 10 glucose; pH 7.4. Then the slices were incubated for 10 min at 32° C. with 0.5 mg/ml of protease (type XXIII) from Aspergillus oryzae. Single pyramidal cells from CA1 and CA3 stratum pyramidale layers were isolated by vibrodissociation locally in the stratum pyramidale CA3 and CA1 hippocampal pyramidal neurons were identified by their characteristic form and partially preserved dendritic arborisation.
After isolation the cells were usually suitable for recordings for 2-4 h. Throughout the entire procedure the solutions with the slices were continuously saturated with 95% O2 and 5% CO2 gas mixture to maintain pH 7.4. The tested substances were dissolved in DMSO to a stock concentration of 10 mM and kept frozen at −40° C. in daily aliquots. The substances were dissolved in external saline to their final concentration immediately before the experiments.
NMDA-activated currents in isolated neurons were induced by the step application of aspartate (1 mM) and […] in the “concentration clamp” mode (Krishtal et al., 1983), using the computerized “Pharma-Robot” set-up (Pharma-Robot, Kiev). This equipment allows a complete change of saline within 15 ms. Transmembrane currents were recorded using a conventional patch-clamp technique, in the whole-cell configuration. […] The intracellular solution contained (in mM): 70 Tris-PO4; 5 EGTA; 40 TEA-Cl (tetraethylammonium chloride); 30 Tris-Cl; 5 Mg-ATP; 0.5 GTP; pH 7.2. The composition of extracellular solution was (in mM):. 130 NaCl; 3 CaCl2; 5 KCl; 2 MgCl2; 10 HEPES-NaOH; 0.1 μM TTX; pH 7.4. Recording of the currents was performed using patch-clamp amplifiers (DAGAN, USA). Transmembrane currents were filtered at 3 kHz, stored and analysed with an IBM-PC computer using homemade software. NMDA responses were recorded with a 3 min interval. All experiments were performed at room temperature (19-24° C.).

[7] = test system: antidromically induced population spikes in CA1 zone of rat hippocampal slices; assay: Antidromically induced population spikes in CA1 zone of rat hippocampal slices; type: cell-based
Procedure: as §1, §2

[8] = test system: orthodromically evoked field potentials in CA1 zone of rat hippocampal slices; assay: Orthodromically induced population spikes (field potentials) in CA1 zone of rat hippocampal slices; type: cell-based

## Nc1ncnc2c1ncn2[C@@H]1O[C@H](COP(=O)(O)OP(=O)(O)OP(O)(O)=S)[C@@H](O)[C@H]1O [ATPγS]
[1]
  inhibition of orthodromically evoked field potentials by known P2X/P2Y agonists: unable to inhibit

## Nc1ncnc2c1ncn2[C@@H]1O[C@H](COP(=O)(O)OP(=O)(O)OP(=O)(O)OP(=O)(O)OC[C@H]2O[C@@H](n3cnc4c(N)ncnc43)[C@H](O)[C@@H]2O)[C@@H](O)[C@H]1O [Ap4A, diadenosine 5′,5′″-P^1,P^4-tetraphosphate]
[2]; literature
  effect on orthodromically evoked field potentials: inhibition
[3]; literature
  effect on excitatory postsynaptic currents: inhibition

## Nc1ncnc2c1ncn2[C@@H]1O[C@H](COP(=O)(O)OP(=O)(O)CP(=O)(O)OP(=O)(O)OC[C@H]2O[C@@H](n3cnc4c(N)ncnc43)C(O)C2O)C(O)C1O (stereo partly shown) [AppCH2ppA]
[4]; 50 μmol/kg s.c.
  CFA-induced thermal hyperalgesia: attenuates
[4]; 50 μmol/kg s.c. (FIG. 18)
  thermal hyperalgesia, contra lateral paw: attenuates
[4]; 48 h (FIG. 18)
  paw withdrawal latencies, contra lateral (non-inflamed) paw: increases
[4]; 48 h after intraplantar CFA (FIG. 17)
  paw withdrawal latencies, CFA-injected paw: increases
[4]; at the doses tested, compared with injured paw
  paw withdrawal latencies for the uninjured paw: less effectively altered
[4]; s.c. administration, 48 h after intraplantar CFA (FIG. 17)
  thermal hyperalgesia, injured paw: evidently potent; also recorded: fully blocked
[4]; s.c., injured paw
  onset of antinociceptive effects in the injured paw after injection: 3 h
[5]; FIG. 5C
  EPSC decay: unchanged
[5]; recorded in CA1 pyramidal neuron, 1.9-7.4 μm (FIG. 5C)
  amplitudes of EPSCs: remained unchanged
[1]; 1.9, 3.7 and 7.4 μm applied in steps, all synaptic pathways incl. CA3-CA1 synapses (FIG. 5A)
  effect on orthodromically evoked field potentials: fast and reversible inhibition
[6]; P2Y receptor antagonist reactive blue
  effect on NMDA-activated current in presence of reactive blue: eliminated
[6]; chelator of bivalent cations EDTA
  effect on NMDA-activated current in presence of EDTA: removed
[6]; low micromolar concentrations, concentration-dependent manner
  amplitude of the NMDA-activated current: increased
[6]; non-specific tyrosine protein kinase inhibitor genestein
  effect on NMDA-activated current after pre-treatment with genestein: abolished
[6]; purine P2 receptor antagonist PPADS
  effect on NMDA-activated current in presence of PPADS: eliminated
[7]; CA3-CA1 synapses, 1.9-7.4 μm (FIG. 5B)
  amplitudes of antidromic spikes: remained unchanged
[7]; Ip4I 20 μM, then 7.4 μM (FIG. 11)
  effect on amplitude of antidromically induced population spikes in presence of Ip4I: did not cause AppCH2ppA to have an effect
[8]; Ip4I 20 μM, then 7.4 μM (FIG. 10)
  effect on amplitude of orthodromically induced population spikes in presence of Ip4I: did hot alter
[8]; PPADS 20 μM applied first (FIG. 6)
  blocking effect on the orthodromic spikes in presence of PPADS: completely abolished
[8]; PTIO 1 mM, then 2.5 μM (FIG. 12)
  reduction by PTIO of the extent of inhibition of orthodromically evoked field potentials: over 50%
[8]; adenosine deaminase approx. 2 U/ml, then 7.4 μM
  inhibition of orthodromically evoked field potentials in presence of adenosine deaminase: eliminated
[8]; bicuculine 50 μM, then 7.4 μM
  inhibition of orthodromically evoked field potentials in presence of bicuculine: unaffected
[8]; cyclopentyl teophylline (CPT) 1 μM, then 7.4 μM (FIG. 7)
  inhibition of orthodromically evoked field potentials in presence of CPT: eliminated
[8]; hexamethonium 100 μM, then 7.4 μM
  inhibition of orthodromically evoked field potentials in presence of hexamethonium: unaffected
[8]; strychnine 500 nM, then 7.4 μM
  inhibition of orthodromically evoked field potentials in presence of strychnine: unaffected

## Nc1ncnc2c1ncn2[C@@H]1O[C@H](CO)[C@@H](O)[C@H]1O [adenosine]
[2]; 5 μM, shown previously (literature)
  effect on orthodromic spikes: inhibit
[3]; shown previously (literature)
  effect on EPSC amplitudes: diminish

## Nc1ncnc2c1ncn2[C@@H]1O[C@H](COP(=O)(O)CP(=O)(O)OP(=O)(O)O)[C@@H](O)[C@H]1O [α,β-methylene-ATP]
[1]
  inhibition of orthodromically evoked field potentials by known P2X/P2Y agonists: unable to inhibit
